What was measured:
Format in all cases: cell-based
[1] = system: Mouse BCR transgenic B cells; experiment: Proinflammatory cytokine release of mouse BCR transgenic B cells; conditions: Mouse BCR tg B cell, stimulus HEL, mean of at least two experiments
Text: (§1) Purification of CD19^+ splenic B cells from MD4 HEL BcR Tg mice MD4 HEL BcR transgenic B10.BR (MD4 B10.BR) mice were a kind gift from Prof. Jose Moreno (Research Unit on Autoimmune Diseases, Centro Medico Nacional Siglo XXI, Mexico).
(§2) The spleens were isolated from MD4 B10.BR and non-transgenic litter control B10.BR mice after sacrificed by exposure to excess amount of isoflurane. The isolated spleens were suspended in RPMI1640 (Invitrogen, #31870), and dissociated by GentleMACS Dissociator (Miltenyi Biotec), and filtrated with Cell Strainer (BD Falcon, 70 μm mesh, #352350). […] The purity was determined via the proportion of CD19 cells in the separated fraction in FACS analysis, and was more than 95%.
FACS Data was analyzed, and their mean fluorescence intensity (MFI) were calculated with FlowJo software (Tree Star Inc). The IC50 values were calculated with GraphPad PRISM ver 6.0 software (GraphPad Software Inc).
One million of B cells purified from MD4 B10.BR as written in the section 2.1 was suspended in 200 μl of complete culture medium, and stimulated with 100 μM of HEL proteins with soluble CD40 ligand at 37° C., 5% CO2 for 48 hours. […] The data are represented as the mean of concentration (pg/ml) from triplicate samples, and IC50 values are calculated as described above. […]

[2] = system: Mouse BCR transgenic B cells; experiment: Antigen presentation of mouse BCR transgenic B cells (antigen-loading via MHC II); conditions: Mouse BCR tg B cell; stimulus HEL; mean of at least four experiments; read-out: IC50 APC function
Text: as §1, §2
Purified B cells were re-suspended in 50 μl of ice-cold FACS buffer (PBS supplemented with 0.1% azide and 0.1% BSA). […] Stained cell samples were washed with 5 ml of ice-cold FACS buffer twice, and analyzed by FACS Calibur (BD Bioscience). […]
FACS Data was analyzed, and their mean fluorescence intensity (MFI) were calculated with FlowJo software (Tree Star Inc). The IC50 values were calculated with GraphPad PRISM ver 6.0 software (GraphPad Software Inc). […]

[3] = system: Splenic B cell from Balb/c nu/nu mice; experiment: LPS-induced antibody production from mouse B cells in vitro; conditions: Mouse spleen, stimulus LPS/IL-4, readout IgM, mean of at least two experiments
Procedure: The LPS-induced B cell functions were investigated according to a protocol adapted from Moon (Moon et al 1989) with minor modifications: Splenic B cell from Balb/c nu/nu mice were cultured with mIL-4, mIL-5 and LPS in the presence of titrated amounts of compound. The final concentrations were 0.5×10^5 splenocytes/well, 500 U/ml mIL-4, 500 U/ml mIL-5, and 50 μg/ml LPS. Supernatants were analyzed for antibody production by ELISA after 6 days of incubation.

Compound `CCC(=O)N1CC[C@H](Nc2ncnc3c2CN(c2cnc(OC)c(C(F)(F)F)c2)CC3)C1` [Compound A, 1-{(S)-3-[6-(6-Methoxy-5-trifluoromethyl-pyridin-3-yl)-5,6,7,8-tetrahydro-pyrido[4,3-d]pyrimidin-4-ylamino]-pyrrolidin-1-yl}-propan-1-one] has an IC50 ([1]; read-out: IC50 IL-6) of 22 nM, an IC50 ([1]; read-out: IC50 TNFα) of 28 nM and an IC50 [2] of 395 nM. The IC50 [3] was 234 nM.
